The test system of experiment [1] is asexual erythrocytic stages of transgenic NF54-luc P. falciparum. In words: Luciferase-based viability screening for anti-malarial activity. The experiment is classed as cell-based, Plasmodium falciparum. The note with it: >50% inhibition of viability rated active; for inhibition at 3 µM: Plasmodium falciparum, NF54, 48 h, read-out: % inhibition, PfNF54-Luc at 3 µM, 3 µM, 48 h. The procedure: Asexual erythrocytic stages of transgenic NF54-luc P. falciparum were used for the luciferase-based viability assay. These parasites constitutively express high levels of luciferase. The parasites were cultured as described previously. Parasite culture with parasitaemia of 0.5–1% was dispensed in triplicate into white 96-well flat-bottom plates (each well contains 250 µL) (NUNC, Roskilde, […], 90% N2, 5% CO2, and 5% O2). 0.01% DMSO was included in the untreated infected RBC cultures as negative control, since the compounds stock initially was diluted in DMSO and each treatment well also contained 0.01% DMSO. Subsequently, 100 µL RPMI1640 media was removed from each well and a 100 µL volume of the Bright-Glo® substrate solution added to each well. The resultant cleavage product of the reaction, light, was measured using a FLUOROSKAN FL luminometer (Thermo), to ascertain viable parasites. Untreated cultures were used as negative controls and to calculate the inhibition rate (0% inhibition of parasite growth). Blasticidin (Sigma-Aldrich, St. Louis, MO, USA), used for selection of transfected parasites, was included as a positive control on each plate and gave >90% inhibition of parasite growth at concentration 2 µg/mL. Compounds with >50% inhibition of viability were rated as actives. Experiments were performed in triplicate and were repeated at least twice.

The subject of experiment [2] is Plasmodium falciparum parasites (3D7 strain). In words: Coenzyme A rescue assay (imaging-based growth inhibition, with or without 0.8 mM CoA). It is filed as cell-based. Particulars: for IC50-ratio (CoA/solvent): IC50 with 0.8 mM CoA / IC50 solvent, threshold 5× significant; for IC50: Plasmodium falciparum; for IC50 shift with CoA supplementation: IC50 CoA / IC50 solvent. The procedure:
Plasmodium falciparum parasites (3D7 strain) were grown in RPMI 1640 supplemented with 25 mM HEPES, 5 mg/mL Albumax II, and 0.37 mM hypoxanthine. Parasites were subjected to two rounds of sorbitol synchronization before undergoing compound treatment. Ring stage parasites were exposed to the experimental compounds alone, or in combination with 0.8 mM coenzyme A (CoA) in 384-wells imaging microplates (CellCarrier, PerkinElmer), as previously described. […] Puromycin 5 µM and untreated solvent were used as in-plate positive and negative controls, respectively. Samples were dissolved in DMSO to a final assay DMSO concentration of 0.4%. […] All sample and control wells contained the same final amounts of solvents. Plates were incubated for 72 h at 90% N2, 5% CO2, 5% O2, then parasites were stained with 2-(4-amidinophenyl)-1H-indole-6-carboxamidine (DAPI), and imaged using an Opera QEHS micro-plate confocal imaging system (PerkinElmer) with 405 nm excitation and 450/50 emission filter, using a 20× water immersion objective. Images were analysed as previously described, to obtain normalized % inhibition data, which were then used to calculate IC50 values, through a four parameter logistic curve fitting in GraphPad Prism v.6. The experiment was carried out in two independent biological replicates, each consisting of two technical replicates. Dose–response curves are illustrated in the Additional file 4.

Setting [3] is: 3D7, 72 h, 0.8 mM CoA (rescue), 72 h, read-out: IC50 [µM], Pf3D7 + 0.8 mM CoA.
[4] abbreviates: 3D7, 72 h, no CoA (solvent, non-rescue), 72 h, read-out: IC50 [µM], Pf3D7 + solvent.

Where two headings read alike, the source gives them in different places.

`c1coc(-c2nnc(Sc3ncnc4sccc34)o2)c1` [Compound 3a]: the “% inhibition, PfNF54-Luc at 3 µM” value in experiment [1] (3 µM, 48 h) is listed as 80.8 ± 0.5%. In addition, the inhibition (as a rule, the share of the control response that was lost under treatment) at 3 µM in experiment [1] is 80%. The “IC50-ratio (CoA/solvent)” value in experiment [2] was determined as 16.3. Further, the IC50 (in general, the concentration at which inhibition is half-maximal) worked out at 4.61 ± 0.15 µM in experiment [2] (setting [3]) and 0.283 ± 0.073 µM in experiment [2] (setting [4]).

On to `Cn1ccnc1Sc1ncnc2sccc12` [Compound 8c], for which the inhibition at 3 µM in experiment [1] was determined as 96.5 ± 1.6%. Also, the IC50 in experiment [2] (setting [3]) was 2.31 ± 0.17 µM; in experiment [2] (setting [4]), 1.3 µM.

Regarding `c1csc(Sc2ncnc3sccc23)n1` [Compound 8d], the inhibition at 3 µM in experiment [1] is 99.9%. Also, in experiment [2], the “IC50 shift with CoA supplementation” value was 67 fold and the “IC50-ratio (CoA/solvent)” value is on record as 67.3. Moreover, in experiment [2] (setting [3]), the IC50 is 2.6 ± 0.4 µM. Moreover, the IC50 in experiment [2] (setting [4]) turned out to be 0.039 ± 0.001 µM.

Regarding `c1coc(Sc2ncnc3sccc23)n1` [Compound 8e], the inhibition at 3 µM in experiment [1] came to 99.5 ± 0.5%. Besides, the “IC50 shift with CoA supplementation” value in experiment [2] stood at 34 fold. The “IC50-ratio (CoA/solvent)” value in experiment [2] was found to be 34.5. Moreover, the IC50 was 2.6 ± 0.4 µM in experiment [2] (setting [3]); 0.0747 ± 0.021 µM in experiment [2] (setting [4]); 0.075 µM in experiment [2] (3D7, no CoA, read-out: IC50, 3D7 strain). In addition, the “fold higher antiplasmodial activity” value in experiment [2] (compared to 8c) stood at 17 fold.

With `Nc1nnc(Sc2ncnc3sccc23)s1` [Compound 8f], in experiment [1], the inhibition at 3 µM stood at 99.7 ± 0.1%. Also, in experiment [2], the “IC50 shift with CoA supplementation” value was 117 fold and the “IC50-ratio (CoA/solvent)” value stood at 117. The IC50 in experiment [2] (setting [3]) is greater than 11 µM. Further, the half-maximal inhibitory concentration (IC50) in experiment [2] (setting [4]) was 0.096 ± 0.006 µM.

As for `c1ccc2[nH]c(Sc3ncnc4sccc34)nc2c1` [Compound 8g], the inhibition at 3 µM in experiment [1] came out at 95 ± 1.1%. Further, the “IC50-ratio (CoA/solvent)” value in experiment [2] amounted to 7.23. The values for the IC50 in experiment [2] (setting [3]) and in experiment [2] (setting [4]) were 0.531 ± 0.007 µM and 0.0734 ± 0.0022 µM, respectively.

In the case of `c1cnc2[nH]c(Sc3ncnc4sccc34)nc2c1` [Compound 8k], in experiment [1], the inhibition at 3 µM was 98 ± 0.2%. The “IC50-ratio (CoA/solvent)” value in experiment [2] is listed as 7.11. Moreover, the IC50 is 1.06 ± 0.03 µM in experiment [2] (setting [3]) and 0.149 ± 0.021 µM in experiment [2] (setting [4]).

(Values after publication PMC5430599, “Antiplasmodial dihetarylthioethers target the coenzyme A synthesis pathway in Plasmodium falciparum erythrocytic stages” (Malaria Journal, 2017).)
